Test results reported in ChEMBL document CHEMBL3507680, “University of Dundee, Gates Library screen for HepG2 cell viability”.

Test: Human HepG2 cell viability assay in 384 well format
Type: toxicity, cell-based
Design: dose 125 nL, time 70.5 hour; cytotoxicity at 70.5 h: concentration not given beside the values
Conditions: HepG2 cells, read-out: Inhibition

| SMILES | cytotoxicity at 70.5 h [%] |
| --- | --- |
| CC(NC(N)=O)C(=O)NCc1ccnc(Oc2ccc(F)cc2)c1 (stereo not given) | -0.577 |
| O=S(=O)(c1ccc(F)cc1)n1cc(Cl)cn1 | -10.6 |
| O=C(Nc1ccc2ncsc2c1)N1CCCN([C@H]2COC[C@@H]2O)CC1 | 0.731 |
| Cc1ccnc(N2Cc3cnn(Cc4ccc(F)cc4)c3C2)n1 | 15.1 |
| Cc1cnn(CC2CCCN2C(=O)CCc2c(C)noc2Cl)c1 (stereo not given) | -8.81 |
| CC(=O)N1N=C(c2cccs2)OC1C(=O)Nc1ccccc1 (stereo not given) | -8.33 |
| Cc1csc(N2CCCN(C3Cc4ccccc4C3)CC2)n1 | -15.6 |
| Cc1noc([C@@H]2CCO[C@@H]3CCN(Cc4cccs4)C[C@@H]32)n1 | 9.6 |
| CC(C)S(=O)(=O)NC(=O)CC(c1ccccc1)C(F)(F)F (stereo not given) | -9.01 |
| O=C(NCC1CC1)[C@H]1CC[C@@H]2[C@@H](CCN2Cc2ccoc2)O1 | -12.5 |
| Cc1nn(C)cc1CN(C)Cc1cc2c(cc1OC(F)F)OCO2 | -7.7 |
| Cc1ccc2c(c1)SCC(=O)N2Cc1noc(C2CC2)n1 | 16.3 |
| Cn1ncc2c(=O)[nH]c(CN3CCCc4cc(F)ccc43)nc21 | -23.1 |
| CCc1nn(C)c(Cl)c1CN1CCCC(c2cc(O)nc(C)n2)C1 (stereo not given) | -0.921 |
| NC(=O)c1cnn2c1NCC(CNCCCc1ccccc1)C2 (stereo not given) | -6.83 |
| N#Cc1ccc(OC2CCN(CC(=O)NCC3CCCO3)CC2)cc1 (stereo not given) | -5 |
| COC(=O)c1ncccc1N1CCCC1 | -2.82 |
| Cc1cccc(NC(=O)N2CCN(Cc3nnc(C(C)C)o3)CC2)c1 | -7.45 |
| O=C([C@H]1CCCO1)N1CC[C@H](O)[C@@H]1Cc1cccnc1 | -4.15 |
| CCn1cc(C(=O)N(C)Cc2c(F)cccc2Cl)cn1 | -2.9 |
| CCc1nsc(NC2CCOC3(CCCC3)C2)n1 (stereo not given) | 1.42 |
| Cc1c(-c2ccccc2)ncn1CCCNc1cccnc1 | -4.84 |
| Cc1nc2cc(CNC(=O)C3CC(=O)N(CCN(C)C)C3)ccc2n1C (stereo not given) | -2.99 |
| Cc1cc(C(F)F)nn1C(C)C(=O)NCc1ncc[nH]1 (stereo not given) | -1.75 |
| Cc1c(C(=O)NS(=O)(=O)c2ccc(F)cc2)cnn1CC(C)C | 20.5 |
| Cc1ccc(-n2c(COCC(=O)O)nc3c(C)cccc32)nc1 | -4.5 |
| Cc1nc(NC2CCN(C(=O)C3CC3)CC2)c2cnn(C)c2n1 | -11.5 |

| SMILES | cytotoxicity at 70.5 h [%] |
| --- | --- |
| CC(CCc1ccc(F)c(F)c1)NS(=O)(=O)Cc1ccon1 (stereo not given) | 20.5 |
| O=C(O)c1ccc(CC2CCN(Cc3ccc(-c4cc[nH]n4)o3)C2)cc1 (stereo not given) | -5.13 |
| Cc1ccc(-n2cc(CN3CCOCC3)c(-c3cccc(C)c3)n2)cc1 | -2.44 |
| CC(=O)N1CCCC1c1nc(CN(C)C(=O)C(C)C)cc(N(C)C)n1 (stereo not given) | -4.11 |
| Cc1ccc(CN2C(=O)CC[C@]23CC[C@@H](NCC2CCOC2)CC3)cc1 (stereo not given in full) | 18.5 |
| O=C([C@H]1COC[C@H]2CN(C3CCOCC3)C[C@H]21)N1CCCCO1 | 4.24 |
| COCCC(Cc1cccc(Br)c1)C(=O)N(C)C (stereo not given) | -0.534 |
| CC(C)CCNC(=O)c1ccc(Cl)c(NS(C)(=O)=O)c1 | -4.83 |
| NCc1cccc(-c2cccnc2C(=O)NCCN2CCCC2)c1 | -8.26 |
| Cc1nonc1C1CCCN1C(=O)CCc1cc2n(n1)CCCNC2 (stereo not given) | -7.72 |
| CNC(=O)C1CCN(S(C)(=O)=O)CC1 | -10.2 |
| Cc1nc(CN2CCOCC3(CCCN(c4cnccn4)C3)C2)cs1 (stereo not given) | -2.38 |
| CC(C)c1ccc(C(O)CN2CCN(Cc3nccn3C)CC2)cc1 (stereo not given) | -3.6 |
| Cc1csc(C2(NCc3csc(C4CC4)n3)CCCC2)n1 | -9.17 |
| c1ccc(Cc2noc(CN(Cc3cccs3)CC3CCCO3)n2)cc1 (stereo not given) | -4.54 |
| CC(C)(NS(C)(=O)=O)c1nc(-c2cccc(Cl)c2)no1 | -4.4 |
| CCc1nc2n(n1)CCCC2NC(=O)Nc1ccc(F)cc1C#N (stereo not given) | 1.79 |
| Cc1ccc(-c2nc(CN(Cc3ccco3)C3CCS(=O)(=O)C3)cs2)o1 (stereo not given) | 15.2 |
| Nc1ccnc(N2CCCC(CO)(Cc3cccc(Cl)c3)C2)n1 (stereo not given) | 6.17 |
| CN1CCC(NC(=O)Nc2ccc(F)c(-n3cccc3)c2)C1=O (stereo not given) | -12.5 |
| O=C1O[C@@H]2CN(c3cnccn3)C[C@@H]2N1CCCc1ccc(F)cc1 | -7.8 |
| Cc1cc(NCCCNc2cccnc2)n2nc(C)c(C)c2n1 | -10.7 |
| Cn1ccnc1C(=O)N1CCC2(CCN2c2ncccn2)C1 (stereo not given) | 0.472 |
| Cn1ccnc(Nc2ccc3c(c2)CCN3C(=O)c2ccoc2)c1=O | -10 |
| NC(=O)c1csc(N2C[C@@H](CN3CCOCC3)[C@@H](CO)C2)n1 | -2.9 |
| O=S(=O)(NC1=NCN(CCc2cccs2)CN1)c1ccccc1 | -19.9 |
| CC(C)N(CC(N)=O)Cc1cccc(C(F)(F)F)c1 | -1.84 |

| SMILES | cytotoxicity at 70.5 h [%] |
| --- | --- |
| Cc1cc(C)cc(C2(C(=O)N3CCCC(n4cncn4)C3)CC2)c1 (stereo not given) | -17.8 |
| CCN1CC2(CC1=O)CN(Cc1ccccn1)CCN(C(C)=O)C2 (stereo not given) | -10.2 |
| COCc1ccc(C(=O)N2CC[C@@](O)(COC)C(C)(C)C2)o1 | -6.95 |
| Cc1cnc(C)c(N2CCC(Cc3ccccc3Cl)(C(=O)O)CC2)n1 | -8.45 |
| O=C(Nc1ccc(N2CCCCC2)nc1)N1CCc2sccc2C1 | 16.2 |
| Nc1ncnc2nc(C3CCCCN3)ccc12 (stereo not given) | -6.59 |
| COCC(Nc1ncnc2sc(C(=O)O)c(C)c12)c1ccnn1C (stereo not given) | 0.588 |
| Cc1ccc(CN(CCCn2ccnc2)Cc2c[nH]nc2C(C)(C)C)s1 | -0.375 |
| CN(C)C(=O)c1cccc(NC(=O)CN2CCCCC2C2OCCO2)c1 (stereo not given) | -5.7 |
| Cc1ccc([C@@]2(O)CC[C@@H]3CN(S(=O)(=O)C(C)C)C[C@@H]32)cc1 | 2.49 |
| CC(C)c1ocnc1C(=O)N1CCCC(c2ccn[nH]2)C1 (stereo not given) | -3.87 |
| Cn1cc(-c2cnc3n2CCC32CCN(S(=O)(=O)C3CC3)CC2)cn1 | -9.03 |
| Cc1ccc(-c2noc(CCC(=O)NC(C)Cn3cccn3)n2)cc1 (stereo not given) | -7.96 |
| c1cc2c(cc1-c1noc3c1CN(C1CCSCC1)CC3)OCO2 | 12.6 |
| CS(=O)(=O)c1snnc1C1CCN(Cc2ccncc2)CC1 | -7.11 |
| CCOc1cc(C(=O)n2cccn2)cc(OCC)c1OCC | -6.27 |
| Cc1[nH]c2ccccc2c1-c1ccnc(NCCN2CCCCC2)n1 | -3.28 |
| CCc1nnc(CN2CCCN(C(=O)c3ccccn3)CC2)o1 | -10.8 |
| CSc1ccc(C(CNC(=O)C2CC2)N2CCc3sccc3C2)cc1 (stereo not given) | -2.83 |
| c1cnnc(N2CCC(c3nnc(Cn4ccnc4)n3C3CC3)CC2)c1 | -4.27 |
| COCCO[C@H]1CCN(C(=O)c2ccoc2C)[C@H]1Cc1cnn(C)c1 | -114 |
| CC(CN1CCOCC1)NCC1CCN(c2cnn(C)c(=O)c2)CC1 (stereo not given) | -4.8 |
| O=S(=O)(NCCCn1cncn1)c1ccc2c(c1)OCCCO2 | -6.28 |
| Cc1cc(C)n(-c2ccc(CNCc3ccc(F)c(F)c3)cn2)n1 | 2.51 |
| O=C([C@H]1CN(Cc2ccccc2F)C[C@H]2OCC[C@@H]12)N1CCCO1 | 1.95 |
| Nc1c(Cl)cnn1C1CCN(Cc2ccccc2)C1 (stereo not given) | -3.84 |
